Data set [1] relates to C. elegans. Briefly: Life span assay on Automated Lifespan Machine (SND302, SND303). The class given is in vivo. The note with it: for Maximum life span: average lifespan of the ten longest-lived worms; for Age in days at 25% mortality / Age in days at 50% mortality / Age in days at 75% mortality / Age in days at 90% mortality / Age in days at 100% mortality: SND302, SND303 25 μM, Uro A, Resveratrol 50 μM. How it is done: An additional life span assay using an adapted standard protocol employed and published by the C. elegans Intervention Testing Program, or CITP was employed to assess the activity of SND302 and SND303. A positive and a negative control were included in the assay. In a preliminary experiment the optimal conditions for the life span analysis was determined and the stress level induced by the compounds as well as toxicity were measured.
For the life span assay over 300 worms per conditions were used and the study was conducted by InVivoBiosystems (USA) using an Automated Lifespan Machine (ALM) with proprietary modifications to improve temperature stability and image acquisition.
To prevent chemical modification or metabolism of the test article by the food bacteria, worms were fed on a lawn of UV-killed bacteria (UV-i bacteria). An overnight culture of E. coli strain WP-2 was pelleted, washed, filtered, and irradiated. A suspension of UV-i bacteria was spotted on NGM agar containing Streptomycin to inhibit growth of contaminating bacteria. The quantity and distribution of food bacteria was calibrated to ensure adequate access to food for the duration of assay while maintaining visibility of the worms.
Test article was delivered to worms by a method compatible with and previously validated on the Automated Lifespan Machine and used by the CIT [Lucanic, et. al. Impact of genetic background and experimental reproducibility on identifying chemical compounds with robust longevity effects. Nature Communications 8 (2017)]. A 200× stock solution was freshly prepared in DMSO immediately before application. 40 μl of DMSO stock (0.5% plate volume) was applied to the plate to coat the food bacteria and then chased immediately with 160 μl water to uniformly distribute a fine precipitate across the surface of the plate. This functioned to provide reservoirs of compound in food, agar, and agar surface.
The ALM used by InVivoBiosystems is based on the Caenorhabditis elegans lifespan machine published by Stroustrup, N. et al. The Caenorhabditis elegans Lifespan Machine. N at Methods 10, 665-670 (2013), with proprietary modifications to improve temperature stability and image acquisition. The scanner unit consists of a modified EPSON V850 and images are processed and analyzed using the ALM software 7. The machine time-of-death calls are trained and validated using the “storyboarding” feature of the ALM software.
The lifespan assay was designed and performed according to published and validated methods, Amrit, F. R. G., Ratnappan, R., Keith, S. A. & Ghazi, A. The C. elegans lifespan assay toolkit. Methods 68, 465-475 (2014); Lucanic, et. al. Manual Lifespan Assay Standard Operating Procedure. Caenorhabditis Intervention Testing Program https://figshare.com/articles/7_CITP_SOP_Manual_Lifespan_Assay/9738197/1. using a modified version of the Automated Lifespan Machine. Worms were age synchronized by bleaching and eggs were plated directly onto NGM agar seeded with UV-I bacteria (Day 1, hatch). On Day 3, when the worms had reached the late L4 stage, they were transferred to dishes containing 100 μM 5-Fluorodeoxyuridine (FUdR) to suppress progeny. On day 5, the worms were washed off the dishes and 30-50 worms were plated on each scanner dish. Plates were immobilized inverted on the bed of an Automated Lifespan Machine which scanned two images per hour of the plates continuously for the next 40 days.
Time of death calls exported from the ALM software were analyzed and plotted using the Lifelines software package developed by Davidson-Pilon, (2019). lifelines: survival analysis in Python. Journal of Open Source Software, 4(40), 1317.

Data set [2] relates to C. elegans gene expression. Briefly: Whole transcriptome analysis (RNA-Seq) of treated worms. The note with it: for Significant differentially-expressed genes: 25 μM. The class given is in vivo. Here is the method: To determine the mode of action for SND302 and SND303 the gene transcription in young and aged adults was analyzed by RNA-Seq (whole transcription analysis). For each condition, >300 worms were treated in parallel with the lifespan assay and maintained under identical conditions.
Differential gene expression was performed with EdgeR using […] likelihood ratio tests based on fitting linear models. The likelihood ratios were used to determine the p-values which were subsequently corrected for using the BH false discovery rate (fdr) method. Eventually, differential expressed genes were defined as genes with fdr-corrected p-value of 0.05 or lower, as well as a change in expression of at least 2-fold in a given between-group comparison. Compounds SND302 and SND303 were compared against Urolithin and Vehicle control. […] In general the transcriptomic data corroborates a differential effect for SND303 when compared to SND302 (FIGS. 1-4).
Worms for RNA-Seq were split from the same synchronized pool of worms for the lifespan with each of the three replicates being maintained and treated in parallel. More than 150 worms per replicate were harvested, cleaned by filtration, and frozen at −80° in Trizol. To extract RNA, samples were thawed, vigorously vortexed, and processed using the Direct-zol RNA Miniprep Kit (Zymo Research). All samples exceeded our threshold for RNA quantity and quality. RNA samples were submitted to Novogene Co. Ltd and subjected to more stringent QC, being tested on a Qubit for concentration and run on an agarose gel and on the Agilent […] assess RNA quality and integrity. […] The total RNA was then enriched for poly-mRNA using oligo(dT) paramagnetic beads. DNA libraries were then constructed from this input mRNA using the NEBNext Ultra™ II RNA Library Prep Kit.
These libraries were then further tested by the Qubit for concentration and the Agilent 2100 for library size distribution and quality. In order to properly pool the libraries and load them onto sequencing lanes to ensure the correct number of reads per sample, an even more precise quantification of the library was done via qPCR, and the samples were loaded onto the NovaSeq 6000 platform for a paired-end sequencing run of 150 bp for each end (PE150). The loading concentrations were designed to obtain at least 6.0 Gb (which is the number of billion bases of raw data, determined by the number of reads multiplied by the length of each read). A mean of 7.4 Gb (median 7.3 Gb) raw sequencing data was obtained across all samples, with a minimum of 6.3 Gb and a maximum of 8.5 Gb raw data. Sequencing run data quality control was performed both by Novogene and by an in-house analysis. The raw data set was analyzed for parameters such as the distribution of base quality along the length of the sequencing read, the distribution of error rate along the length of the sequencing read. Reads containing adapter sequences, with N>10% (where N means “base cannot be determined”) and with a low quality (Qscore<=5) for 50% or more of its total bases were removed.

The subject of data set [3] is N2 wild type strain of worms. Briefly: C. elegans life span (survival) assay, manual scoring (SND301). The class given is in vivo. The note with it: for Death events / Maximum life span / Median lifespan: SND301 and Urolithin A 50 μM; for % Complete: deaths attributed to aging from total worm population. Here is the method:
The survival assay was conducted in the presence of 50 μM SND301 with measurements of live, dead, and censored worms at time points every 2-3 days from the start of adulthood.
Thioflavin T was used in the assay as a positive control [Gamir-Morralla A et al, 2019, “Effects of Thioflavin T and GSK-3 Inhibition on Lifespan and Motility in a Caenorhabditis elegans Model of Tauopathy”, J Alzheimers Dis Rep., 3(1): 47-57]. Vehicle 25% and 1% DMSO were used as controls and represent the vehicles in which compounds and bacteria or bacteria alone respectively were resuspended. The final DMSO concentration in the agar plates was 0.5% and 0.02% respectively.
5 mM DMSO stock solutions for each compound were prepared in high-grade DMSO. Stocks were protected from light and stored in glass vials at 21° C. in a temperature-controlled room (to avoid freeze/thaw of DMSO). A fresh stock was prepared at the start of each experiment and stored for <1 week.
The lifespan assay was designed and performed according to published and validated methods with modifications for chemical treatment [Amrit F R G et al, 2014, “The C. elegans lifespan assay toolkit”, METHODS 68, 465-475; Leukanic, et. Al, “Manual Lifespan Assay Standard Operating Procedure”, Caenorhabditis Intervention Testing Program, https://figshare.com/articles/7_CITP_SOP_Manual_Lifespan_Assay/9738197/1]. Plates were seeded with compound dissolved in 25% DMSO and bacteria. The DMSO diffused through the agar to reach a final concentration of 0.5%. Synchronized day 1 adult worms were transferred to seeded plates containing compound and allowed to lay eggs for 2 hours (Day 0, “hatchoff”). The young adults were then removed, and the eggs were incubated at 20° C. until they had reached the young adult stage (day 3). 200 young adult worms per treatment were transferred to 8 fresh seeded 35 mm dishes with compound and 50 μM 5-Fluorodeoxyuridine to suppress progeny. […] Worms that were missing, stuck to the dish, burrowed, injured, or exploded were scored as censored and removed from the plate. To maintain chemical exposure at the experimental concentrations, worms were transferred every other scoring day to new seeded plates with compound.

For data set [4], the system named is human hepatocytes. Briefly: Cell viability (ATP content) in primary human hepatocytes. The class given is cell-based. The settings on record: 1 to 100 μM, 24 h exposure, pooled human hepatocytes. Here is the method:
(§1) Cytotoxicity potency of test compound SND301 was assayed in human hepatocytes from pooled donor lots at three concentrations; 1, 10 and 100 μM. Cytotoxicity was assayed from medium samples after 24 h exposure period with test compounds by measuring membrane integrity (LDH leakage), coupled to fluorescent signal. In parallel, cell viability was assayed by the means of ATP content, indicating the metabolically competent cell activity. ATP content was measured based on luciferase catalysed reaction generating stable bioluminescent signal. Cytotoxic positive control compound was used: chlorpromazine at 5-250 μM.
(§2) Cryopreserved human hepatocytes from pooled donor lot (Bioreclamation IVT) were seeded on collagen I coated 96-well plates (Corning Biocoat) at 0.55×10^5 cells per well in 120 μl InVitroGRO™ CP medium (BioIVT), including additives Torpedo Antibiotic mix (BioIVT). […] Cytotoxicity and cell viability were evaluated based on LDH release in medium and ATP content in the cells after 24 hours exposure phase.
The remaining medium and cells were used for the assessment of metabolically competent cells (ATP) according to the manufacturer's (Promega) protocol. […] The samples were transferred to white opaque-walled 96-well plate (Corning #3610) after which measured with plate reader for luminescence.
(§3) Both LDH and ATP assays were measured 1-2 hours post treatment with assay components.

For data set [5], the system named is human hepatocytes. Put plainly: Cytotoxicity (LDH leakage, membrane integrity) in primary human hepatocytes. The class given is cell-based. The settings on record: 1 to 100 μM, 24 h exposure, pooled human hepatocytes. How it is done: as §1, §2
After 24 h exposure half of the culture medium (50 μl) was transferred to black opaque-walled 96-well plate (Corning #3603) for LDH measurements and allowed to settle to room temperature. […] Thereafter the samples were analysed with plate reader for fluorescence (LDH; 560ex, 590em).
as §3
A general note: LDH leaks from cells whose membrane has failed.

Data set [6] relates to N2 wild type strain of worms. Briefly: Toxicity and food avoidance test in worms (SND301). It counts as in vivo, C. elegans. The note with it: concentrations up to 50 μM, from embryo to first day of adulthood. How it is done:
In a first stage of this study, normal worms were treated with various concentrations of SND301 to test toxicity and food avoidance.
To test food avoidance worms were placed on agar plates containing a grid of alternating control and compound-containing food spots. The number of worms on each food spot was recorded every two hours.

Where [7] appears, read: Table 1A, at a certain point during the study, N2.

Entries after “also recorded” stand apart in the source; their conditions may differ.

As for `Oc1ccc(C=Cc2cc(O)cc(O)c2)cc1` [Resveratrol, reference compound], in data set [1] (50 μM), the “Median lifespan” value was 28.2 days and the “Maximum life span” value was 36.6 days. In addition, in data set [1], the “Age in days at 25% mortality” value was found to be 24.6 days, the “Age in days at 50% mortality” value stood at 28.2 days, the “Age in days at 75% mortality” value is 30.5 days and the “Age in days at 90% mortality” value was 32.7 days. In addition, the “Age in days at 100% mortality” value in data set [1] came out at 37.8 days.

With `CCNC(=O)Oc1ccc2c(c1)oc(=O)c1cc(OC(=O)NCC)ccc12` [SND302], in data set [2] (Day 3, compared to the controls (Vehicle and Urolithin A)), the Significant differentially-expressed genes was 7-8 genes. In addition, the “Expression of gene C50F7.5” value in data set [2] (Day 10) is recorded as “significantly upregulated”. In addition, in data set [2] (Day 10, compared to the controls (Vehicle and Urolithin A)), the Significant differentially-expressed genes is on record as 12-14 genes. Besides, in data set [2] (early exposure period), the “Toxicity and stress response induction (transcriptome)” value was “some signs of toxicity and stress response induction”. Besides, in data set [1] (25 μM), the “Median lifespan” value is 28.2 days and the “Maximum life span” value was determined as 36.1 days. Also, the “Mean lifespan” value in data set [1] (25 μM, area under the survival curve) was found to be 27.0 days. In data set [1], the “Age in days at 25% mortality” value stood at 24.2 days, the “Age in days at 50% mortality” value is recorded as 28.2 days, the “Age in days at 75% mortality” value is 31.0 days and the “Age in days at 90% mortality” value was determined as 33.0 days. Also, the “Age in days at 100% mortality” value in data set [1] amounted to 37.9 days. In data set [1] (in words, compared to control), the Effect on lifespan entry is recorded as “did not show a significant difference from the control”.

With `Cc1ccc2c(c1)sc(-c1ccc(N(C)C)cc1)[n+]2C.[Cl-]` [Thioflavin, Thioflavin T], in data set [3] (setting [7]), the Death events stood at 38 and the “% Complete” value worked out at 23.2%. In addition, the Death events in data set [3] (Table 1B, end of the study) was found to be 38. In addition, in data set [3] (end of the study), the “Maximum life span” value worked out at 33 days and the “Median lifespan” value is 21 days.

Turning to `CNC(=O)Oc1ccc2c(c1)oc(=O)c1cc(OC(=O)NC)ccc12` [SND301], the “Effect on lifespan” value in data set [3] (50 μM, in words) is listed as “significantly increased life span; also recorded: significantly increased median lifespan”. In data set [3] (setting [7]), the Death events came to 59 and the “% Complete” value worked out at 31.6%. This molecule registered a Death events in data set [3] (Table 1B, end of the study) of 179. In addition, in data set [3] (end of the study), the “Maximum life span” value amounted to 31 days and the “Median lifespan” value is 24 days. Further, the Surviving fraction result in data set [3] (until day 24, compared with all groups) was “highest surviving fraction by a considerable margin”. In data set [4], the ATP content was 72-103%. In addition, in data set [5], the “Cytotoxicity (LDH) leakage” value is on record as 7-10%. For the same molecule, in data set [6], the Tolerability of exposure result is recorded as “well tolerated”.

These data come from patent US12264142B2, “Heterocyclic compounds” (FLORATEK PHARMA SA, priority 2019, dated 2025).
